Converted amounts (≈) assume the structure as drawn. Read-outs that look alike come from different tables or passages of the source.
What was measured:
[1] = tested on: Helicobacter pylori; experiment: In vitro inhibition of Helicobacter pylori (broth microdilution MIC); details: for MICs of control drugs relative to expected values: H. pylori ATCC 43; for MIC: Helicobacter pylori
[2] = tested on: Mycobacterium bovis BCG (recombinant strain); experiment: microbe, parasite or virus in culture; format: cell-based; details: Mycobacterium tuberculosis variant bovis BCG, BCG, 144 h; 6 days 37° C.; read-out: MIC, column A, 3(S) compounds
[3] = tested on: Mycobacterium bovis (rBCG-lux); experiment: microbe, parasite or virus in culture; format: cell-based, Mycobacterium bovis bacille Calmette Guerin; details: Mycobacterium tuberculosis variant bovis, 72 h; read-out: % of control, measured in RLUs
[4] = tested on: M. tuberculosis H37 Rv in human THP-1 macrophages; experiment: In vitro activity against M. tuberculosis in human macrophages (luciferase bioluminescence); format: cell-based, Mycobacterium tuberculosis, in human THP-1 cells
[5] = 72 h, read-out: MIC against Helicobacter pylori, strain 17 (Table 5A)
[6] = 72 h, read-out: MIC against Helicobacter pylori, strain 19 (Table 5A)
[7] = 72 h, read-out: MIC against Helicobacter pylori, strain 20 (Table 5A)
[8] = 72 h, read-out: MIC against Helicobacter pylori, strain 40 (Table 5A)
[9] = 72 h, read-out: MIC against Helicobacter pylori, strain 43 (Table 5A)
[10] = 72 h, read-out: MIC against Helicobacter pylori, strain 76 (Table 5A)
[11] = ATCC43504, 72 h, read-out: MIC against Helicobacter pylori, strain ATCC 43504 (Table 5A)

## Cc1ncc([N+](=O)[O-])n1CCO [Metronidazole, reference compound]
[1]
  MICs of control drugs relative to expected values: within the expected values
[1]; [5]
  MIC: 32 µg/mL (≈ 187 µM)
[1]; [6]
  MIC: 0.25 µg/mL (≈ 1.46 µM)
[1]; [7]
  MIC: 1 µg/mL (≈ 5.84 µM)
[1]; [8]
  MIC: 0.25 µg/mL (≈ 1.46 µM)
[1]; [9]
  MIC: 0.032 µg/mL (≈ 0.187 µM)
[1]; [10]
  MIC: 32 µg/mL (≈ 187 µM)
[1]; 72 h, read-out: MIC against Helicobacter pylori, strain B40, Met-S, Clar-S (Table 5B)
  MIC: < 0.5 µg/mL
[1]; 72 h, read-out: MIC against Helicobacter pylori, strain B76, Met-R, Clar-S (Table 5B)
  MIC: 8 µg/mL (≈ 46.7 µM)
[1]; 72 h, read-out: MIC against Helicobacter pylori, strain C1649, Met-R, Clar-R (Table 5B)
  MIC: 16 µg/mL (≈ 93.5 µM)
[1]; 72 h, read-out: MIC against Helicobacter pylori, strain C11403, Met-S, Clar-R (Table 5B)
  MIC: < 0.5 µg/mL
[1]; 72 h, read-out: MIC against Helicobacter pylori, strain C19765 (Table 5B)
  MIC: 8 µg/mL (≈ 46.7 µM)
[1]; 72 h, read-out: MIC against Helicobacter pylori, strain RD26, Met-S, Clar-S (Table 5B)
  MIC: 1 µg/mL (≈ 5.84 µM)
[1]; 72 h, read-out: MIC against Helicobacter pylori, strain rd26, Met-S, Clar-S (Table 5B)
  MIC: 1 µg/mL (≈ 5.84 µM)
[1]; [11]
  MIC: 128 µg/mL (≈ 748 µM)
[1]; ATCC43504, 72 h, read-out: MIC against Helicobacter pylori, strain ATCC 43504, Met-R, Clar-S (Table 5B)
  MIC: 128 to 256 µg/mL (≈ 748 to 1500 µM)
[1]; ATCC43526, 72 h, read-out: MIC against Helicobacter pylori, strain ATCC 43526, Met-R, Clar-S (Table 5B)
  MIC: 16 µg/mL (≈ 93.5 µM)
[1]; ATCC43579, 72 h, read-out: MIC against Helicobacter pylori, strain ATCC 43579, Met-S, Clar-S (Table 5B)
  MIC: 2 µg/mL (≈ 11.7 µM)
[1]; ATCC43629, 72 h, read-out: MIC against Helicobacter pylori, strain ATCC 43629, Met-S, Clar-S (Table 5B)
  MIC: < 0.5 µg/mL

## O=C(Nc1ccc(Cl)cc1)N[C@@H]1COc2nc([N+](=O)[O-])cn2C1 [PA-1282, 4-Chlorophenyl Urea of 3S 3-Amino-6-nitro-3,4-dihydro-[2-1b]imidazopyran]
[2]
  MIC: ≤ 0.002 µg/mL

## CC1(C)S[C@@H]2[C@H](NC(=O)[C@H](N)c3ccc(O)cc3)C(=O)N2[C@H]1C(=O)O [Amoxicillin, reference compound]
[1]
  MICs of control drugs relative to expected values: within the expected values
[1]; [5]
  MIC: 0.016 µg/mL (≈ 0.0438 µM)
[1]; [6]
  MIC: 0.016 µg/mL (≈ 0.0438 µM)
[1]; [7]
  MIC: 0.032 µg/mL (≈ 0.0876 µM)
[1]; [8]
  MIC: 0.032 µg/mL (≈ 0.0876 µM)
[1]; [9]
  MIC: 0.016 µg/mL (≈ 0.0438 µM)
[1]; [10]
  MIC: 0.032 µg/mL (≈ 0.0876 µM)
[1]; [11]
  MIC: 0.06 µg/mL (≈ 0.164 µM)

## CC[C@@H](CO)NCCN[C@@H](CC)CO [Ethambutol]
[3]
  activity at 0.15 µg/mL: 179%
  activity at 0.31 µg/mL: 152%
  activity at 0.62 µg/mL: 98.8%
  activity at 1.25 µg/mL: 148%
  activity at 2.5 µg/mL: 54.8%
  activity at 5 µg/mL: 53.1%

## NNC(=O)c1ccncc1 [Isoniazid, reference compound]
[3]
  activity at 0.15 µg/mL: 158%
  activity at 0.31 µg/mL: 122%
  activity at 0.62 µg/mL: 110%
  activity at 1.25 µg/mL: 51.1%
  activity at 2.5 µg/mL: 34.1%
  activity at 5 µg/mL: 11.4%
[4]; 0.03 μg/mL, day 1
  RLU values: 20360 RLU
[4]; 0.03 μg/mL, day 2
  RLU values: 61355 RLU
[4]; 0.03 μg/mL, day 3
  RLU values: 89528 RLU
[4]; 0.03 μg/mL, day 4
  RLU values: 68253 RLU
[4]; 0.03 μg/mL, day 7
  RLU values: 89032 RLU
[4]; 0.06 μg/mL, day 1
  RLU values: 32192 RLU
[4]; 0.06 μg/mL, day 2
  RLU values: 36680 RLU
[4]; 0.06 μg/mL, day 3
  RLU values: 40344 RLU
[4]; 0.06 μg/mL, day 4
  RLU values: 27408 RLU
[4]; 0.06 μg/mL, day 7
  RLU values: 15855 RLU
[4]; 0.13 μg/mL, day 1
  RLU values: 31113 RLU
[4]; 0.13 μg/mL, day 2
  RLU values: 33898 RLU
[4]; 0.13 μg/mL, day 3
  RLU values: 36634 RLU
[4]; 0.13 μg/mL, day 4
  RLU values: 25282 RLU
[4]; 0.13 μg/mL, day 7
  RLU values: 13373 RLU

## NCC[C@H](O)C(=O)N[C@@H]1C[C@H](N)[C@@H](O[C@H]2O[C@H](CN)[C@@H](O)[C@H](O)[C@H]2O)[C@H](O)[C@H]1O[C@H]1O[C@H](CO)[C@@H](O)[C@H](N)[C@H]1O [Amikacin]
[3]
  activity at 0.15 µg/mL: 52.9%
  activity at 0.31 µg/mL: 31.7%
  activity at 0.62 µg/mL: 18.9%
  activity at 1.25 µg/mL: 18.1%
  activity at 2.5 µg/mL: 10.7%
  activity at 5 µg/mL: 5.2%

## [H]/N=C(/N)N[C@H]1[C@H](O)[C@@H](O)[C@H](O[C@@H]2O[C@@H](C)[C@](O)(C=O)[C@H]2O[C@@H]2O[C@@H](CO)[C@H](O)[C@@H](O)[C@@H]2NC)[C@@H](N/C(N)=N\[H])[C@@H]1O [Streptomycin]
[3]
  activity at 0.15 µg/mL: 63.5%
  activity at 0.31 µg/mL: 39.8%
  activity at 0.62 µg/mL: 19.6%
  activity at 1.25 µg/mL: 11.7%
  activity at 2.5 µg/mL: 8%
  activity at 5 µg/mL: 4.4%

Reference: US6087358A (priority 1997, dated 2000)
